Values after ≈ are worked out from the molar mass of the structure shown. Where two headings read alike, the source gives them in different places.
Experiments:
PGE2 = PGE2 assay (anti-inflammatory test, SOP No. ATO-5307-00); format: cell-based
Method: The anti-inflammation test was carried out according to SOP No. ATO-5307-00 measuring the percent inhibition of PGE2.
(§1) The bacterial anti-attachment activity of a selected radical of menthol carbonate/carbamate derivatives of the present invention was investigated using the crystal violate assay (SOP No. ATO-5345-00) in a 384-well plate over a 0.0004-2500 ppm concentration range. The anti-oxidant activity of the menthol carbonate/carbamate derivatives of the present invention was determined using the lipid peroxides assay (Kamiaya Biomedical Co., Seattle, Wash.) which is a colorimetric method that measures reduction of cumene hydroperoxide radicals. The anti-microbial test was performed according to the SOP No. ATO-5308-00 for determination of Minimal Inhibitory Concentration (MIC). The anti-inflammatory test was carried out according to SOP No. ATO-5307-00 measuring the percent inhibition of PGE2.
The anti-inflammatory activity of 2-isopropyl-5-methylcyclohexyl 2-hydroxyphenyl carbamate was tested in PGE2 assay and compared to Triclosan.

GM-CSF = test: 5-plex assay by using Luminex: GM-CSF; format: cell-based; conditions: pure compounds
Source text: (§2) The menthol-derivative compound of the present invention was further evaluated in 5-plex assay by using luminex.

IL-1b = test: 5-plex assay by using Luminex: IL-1b; format: cell-based; conditions: pure compounds
Source text: as §2

IL-6 = test: 5-plex assay by using Luminex: IL-6; format: cell-based; conditions: for IL-6 (reduction of untreated control): pure compounds
Source text: as §2

TNF-α = test: 5-plex assay by using Luminex: TNF-α; format: cell-based; conditions: for TNF-α (reduction of untreated control): pure compounds
Source text: as §2

[1] = Lipid peroxides assay (anti-oxidant activity); format: biochemical; conditions: in simple solution, FIG. 2
Method: The anti-oxidant activity was determined using the lipid peroxidases assay (Kamiaya Biomedical Co., Seattle, Wash.) which is a colorimetric method that measures reduction of cumene hydroperoxide radicals.
as §1

MMP-13 mRNA = test: Inhibition of MMP-13 mRNA expression stimulated by parathyroid hormone (PTH); format: cell-based; conditions: PTH for 4 hours, FIG. 4
Method: The anti-MMP-13 activity was determined by measuring the inhibition of MMP-13 mRNA expression that is stimulated by parathyroid hormone (PTH).

A.v = test: Minimal Inhibitory Concentration (MIC) test, SOP No. ATO-5308-00; format: cell-based; conditions: for MIC: read-out: MIC (against A.v)
Method: The anti-microbial test was measured according to the SOP No. ATO-5308-00 for determination of Minimal Inhibitory Concenctration (MIC).
as §1

[2] = Artificial mouth model (anti-microbial efficacy); conditions: FIG. 5

IC50 (PGE2; pure compounds, PGE2 assay, read-out: IC50)	Anti-microbial efficacy in MIC test (in words) (A.v)	MIC (A.v; in vitro)	Compound	Anti-inflammatory activity in PGE2 assay (in words) (PGE2; pure compound)	GM-CSF (reduction of untreated control) (GM-CSF)	IL-1b (reduction of untreated control) (IL-1b)	IL-6 production (in words) (IL-6; pure compound)	IL-6 (reduction of untreated control) (IL-6)	TNF-α production (in words) (TNF-α; pure compound)	TNF-α (reduction of untreated control) (TNF-α)	Anti-oxidant efficacy (in words) [1]	MMP-13 mRNA stimulated by parathyroid hormone (in words) (MMP-13 mRNA)	Anti-microbial efficacy in artificial mouth model (in words) [2]	IC50 (PGE2)	MIC (A.v)
380 nM	good anti-microbial efficacy	4.9 µg/mL (≈ 16.8 µM)	CC1CCC(C(C)C)C(OC(=O)Nc2ccccc2O)C1 (stereo not shown) [2-isopropyl-5-methylcyclohexyl 2-hydroxyphenyl carbamate]	comparable to Triclosan	6%	13%	significantly inhibits	33%	significantly inhibits	81%	comparable anti-oxidant efficacy with Vitamin E	significantly suppressed	good anti-microbial efficacy	–	–
–	–	–	Oc1cc(Cl)ccc1Oc1ccc(Cl)cc1Cl [Triclosan, 2,4,4-trichloro-2′-hydroxydiphenyl ether, reference compound]	–	4%	13%	–	37%	–	58%	–	–	–	480 nM	1.9 µg/mL (≈ 6.56 µM)

From patent US10426752B2, “Menthol-derivative compounds and use thereof as oral and systemic active agents” (priority 2009, dated 2019)
